The record followed here is ChEMBL document CHEMBL4699578, “Next generation quorum sensing inhibitors: Accounts on structure activity relationship studies and biological activities” (Bioorg Med Chem, 2020).

In general, inhibition refers to the drop in the measured response relative to a control, in per cent. Usually IC50 stands for the midpoint of a concentration-inhibition curve.

In test [1] the test system is Pseudomonas aeruginosa. The experiment in a line: Inhibition of quorum sensing system in Pseudomonas aeruginosa assessed as reduction in biofilm formation at 250 uM incubated for 24 hrs by crystal violet staining based method relative to control.
Test [2] in a line: Inhibition of quorum sensing system in Escherichia coli O157:H7.
Test [3] deals with Escherichia coli. As to the kind of experiment: Inhibition of quorum sensing system in Escherichia coli MT102 at 250 uM measured after 15 hrs by fluorescence method relative to control.
A short description of test [4]: Inhibition of quorum sensing system in Staphylococcus aureus.
Test [5] is described as follows: Inhibition of LuxR in Escherichia coli Top10 assessed as reduction in GFP production using 3OC6HSL as substrate by fluorescence method.
Test [6] in a line: Inhibition of quorum sensing system in Chromobacterium violaceum CV026 assessed as reduction in violacein production incubated for 16 to 18 hrs by spot test method.
Test [7] relates to Pseudomonas aeruginosa. The experiment in a line: Inhibition of quorum sensing system in Pseudomonas aeruginosa MH602 harboring lasB promoter measured at 250 uM every 30 mins over 22 hrs by fluorescence method relative to control. To be noted: time hrs >22.
Test [8] deals with Escherichia coli. As to the kind of experiment: Inhibition of quorum sensing system in Escherichia coli assessed as reduction in biofilm formation at 250 uM incubated for 24 hrs by crystal violet staining based method relative to control.
The subject of test [9] is Vibrio campbellii ATCC BAA-1116. The experiment in a line: Inhibition of quorum sensing system in Vibrio harveyi BB120 assessed as delay time for the onset of bioluminescence at 50 ug/ml measured every 10 mins after 5 min of double orbital stirring during 11 hrs 50 mins by luminescence method. To be noted: dose 50.0 µg/ml, time 710.0 min.
Test [10] can be described thus: Inhibition of quorum sensing system in Stenotrophomonas maltophilia.
Test [11] is described as follows: Inhibition of quorum sensing system in Pseudomonas aeruginosa PAO1 assessed as reduction in […] incubated for 18 hrs by congo red staining based assay.
Test [12] can be described thus: Inhibition of quorum sensing system in Pseudomonas aeruginosa PAO1 assessed as reduction in pyocyanin production incubated for 8 hrs.
Test [13] in a line: Antagonist activity at Vibrio fischeri quorum sensing system in presence of OHHL by bioluminescence method. On the set-up: species or system Aliivibrio fischeri.
A short description of test [14]: Inhibition of quorum sensing system in Pseudomonas aeruginosa PAO1.
A short description of test [15]: Inhibition of quorum sensing system in Pseudomonas aeruginosa.
A short description of test [16]: Inhibition of quorum sensing system in Proteus mirabilis.
Test [17] is described as follows: Inhibition of quorum sensing system in Burkholderia cepacia.
In test [18] the target is T1, Transcriptional activator protein LuxR (Aliivibrio fischeri, UniProt P12746).
T1 sequence (P12746 whole entry): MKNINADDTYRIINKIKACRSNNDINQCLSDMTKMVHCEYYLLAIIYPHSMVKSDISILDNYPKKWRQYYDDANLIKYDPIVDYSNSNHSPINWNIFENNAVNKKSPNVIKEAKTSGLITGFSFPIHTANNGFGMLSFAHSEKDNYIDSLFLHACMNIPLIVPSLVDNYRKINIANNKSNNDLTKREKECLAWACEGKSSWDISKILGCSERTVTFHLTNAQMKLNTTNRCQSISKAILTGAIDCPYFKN
The experiment in a line: Antagonist activity at Vibrio fischeri luxR expressed in Escherichia coli NM522 in presence of 3-oxo-C6-HSL.

Test [19] can be described thus: Antagonist activity at Pseudomonas aeruginosa PAO-JP2 LasR assessed as reduction in GFP production incubated for 6 hrs in presence of OdDHL by fluorescence method.
The test system of test [20] is Pseudomonas aeruginosa. As to the kind of experiment: Antagonist activity at Pseudomonas aeruginosa PAO-JP2 LasR assessed as reduction in GFP production incubated for 6 hrs in presence of OdDHL by fluorescence method relative to control. On the set-up: scale not given: the % may be the effect or the level left. To be noted: filed as antagonist.

`C#CCNC(=O)C(=O)c1cc(Br)ccc1NC(=O)CCl`: the inhibition in test [1] is 66.5%. In the case of `O=c1c(O)c(-c2ccc(O)c(O)c2)oc2cc(O)cc(O)c12` [QUERCETIN], the IC50 in test [2] stood at 20 µM. `C#CCNC(=O)C(=O)c1ccccc1NC(=O)CCl`: the inhibition is 71.5% in test [3] and 66.9% in [1]. In the case of `CC1=CC(=O)C(C(C)C)=CC1=O` [THYMOQUINONE], the IC50 in test [4] amounted to 130 µM. In the case of `CCOC(=O)/C=C1\CC(NCc2ccc(C)cc2)C(=O)N1Cc1ccc(C)cc1` (stereo unspecified), the IC50 in test [5] stood at 50 µM. Take `O=C(Nc1ccc(S(=O)(=O)N[C@H]2CCOC2=O)cc1)c1sccc1Cl`: the IC50 in test [6] was 6.19 µM. Turning to `C#CCNC(=O)C(=O)c1cc(F)ccc1NC(=O)CCl`, the inhibition was determined as 73.5% in test [3], 71.5% in test [7] and 89.5% in test [8]. As to `C=C1CCC[C@H]2[C@](C)(Cc3c(O)c(OC(C)=O)cc(OC)c3OC(C)=O)[C@@H](C)CC[C@]12C`, in test [9], the TIME came out at 1 h. Compound `O=C(/C=C/c1ccc(O)c(O)c1)O[C@@H]1C[C@](O)(C(=O)O)C[C@@H](O)[C@H]1O` [CHLOROGENIC ACID] yielded an IC50 in test [10] of 22 µM. `O=C1C[C@@H](c2ccc(O)cc2)Oc2cc(O)cc(O)c21` [NARINGENIN]: the IC50 in test [11] and in test [12] was 4000 µM throughout. For `COC1=CC(=O)C(O)=C(C[C@]2(C)[C@@H](C)CC[C@]3(C)OC(=O)CCC[C@@H]23)C1=O`, the TIME in test [9] is 0.667 h. Take `O=C(N[C@H]1CCOC1=O)SCc1ccc([N+](=O)[O-])cc1`: the IC50 in test [13] worked out at 23 µM. For `Oc1cc(O)c2c(c1)O[C@H](c1ccc(O)c(O)c1)[C@@H](O)C2` [CIANIDANOL], the IC50 in test [14] amounted to 4000 µM. In [7], `O=C1Cn2nncc2CNC(=O)C(=O)c2ccccc2NC(=O)Cn2nncc2CNC(=O)C(=O)c2ccccc2N1` had an inhibition of 73.5%. `O=C(O)c1ccccc1O` [SALICYLIC ACID] registered a half-inhibitory concentration (IC50) in test [15] of 1440 µM.

Turning to `Cc1ccc2c(c1)C(=O)C(=O)N2C(=O)CCl`, the inhibition in test [1] is 71.2%. As to `O=C/C=C/c1ccccc1` [CINNAMALDEHYDE], the midpoint of inhibition in test [14], the IC50, lay at 5900 µM. `O=C(N[C@H]1CCOC1=O)OCc1ccc([N+](=O)[O-])cc1`: the IC50 in test [13] was 22 µM. Turning to `C=C1CCC[C@H]2[C@](C)(CC3=C(O)C(=O)C=C(O)C3=O)[C@@H](C)CC[C@]12C`, in test [9], the TIME is 2.5 h.

As to `O=C1C(=O)N(C(=O)CCl)c2ccccc21`, the inhibition in [8] amounted to 87.9%.

For `O=C(O)/C=C/c1ccccc1` [CINNAMIC ACID], the IC50 in [15] stood at 1680 µM.

For `Oc1ccc(/C=C/c2cc(O)cc(O)c2)cc1` [RESVERATROL], half-maximal inhibition in test [16] (IC50) required 65 µM. On to `COc1cc(/C=C/C(=O)CC(=O)/C=C/c2ccc(O)c(OC)c2)ccc1O` [CURCUMIN], for which the IC50 in test [14] is 3 µM.

The compound `O=C(OC[C@H]1O[C@@H](OC(=O)c2cc(O)c(O)c(OC(=O)c3cc(O)c(O)c(O)c3)c2)[C@H](OC(=O)c2cc(O)c(O)c(OC(=O)c3cc(O)c(O)c(O)c3)c2)[C@@H](OC(=O)c2cc(O)c(O)c(OC(=O)c3cc(O)c(O)c(O)c3)c2)[C@@H]1OC(=O)c1cc(O)c(O)c(OC(=O)c2cc(O)c(O)c(O)c2)c1)c1cc(O)c(O)c(OC(=O)c2cc(O)c(O)c(O)c2)c1` [TANNIC ACID] showed an IC50 in test [4] of 20 µM. Turning to `C[C@H]1CC[C@]2(C)C(=O)CCC[C@H]2[C@]1(C)CC1=C(O)C(=O)CC1=O`, in [9], the TIME amounted to 0.667 h. Consider `O=c1oc2c(O)c(O)cc3c(=O)oc4c(O)c(O)cc1c4c23` [ELLAGIC ACID], for which half-maximal inhibition in [17] (IC50) required 132 µM. In the case of `O=c1c(O)c(-c2ccc(O)cc2)oc2cc(O)cc(O)c12` [KAEMPFEROL], 220 µM corresponded to half-maximal inhibition in test [4] (IC50). As to `C#CCNC(=O)C(=O)c1cc(Cl)ccc1NC(=O)CCl`, the inhibition in test [3] was determined as 72.1%; in [7], 71.5%; in [8], 90.8%. Regarding `O=C1c2c(O)cc(O)cc2O[C@H](c2ccc(O)c(O)c2)[C@H]1O` [(+)-TAXIFOLIN], the IC50 in test [11] and in [12] was 4000 µM each time. On to `Nc1ccccc1[N+](=O)[O-]` [2-NITROANILINE], for which the IC50 in test [18] is 85 µM. `O=C1C[C@@H](c2ccc(O)c(O)c2)Oc2cc(O)cc(O)c21` [ERIODICTYOL]: the IC50 in [11] and in test [12] was 4000 µM throughout. As for `CCCCCCCCCNC(=O)CC(=O)c1ccco1`, in test [19], the IC50 stood at 1.2 µM. Also, the Activity in test [20] is 96%.
